Reference: patent publication US20240207219A1, “Artemisia anti-bacterial compositions and methods of use for inhibition of cells of Mycobacterium species” (priority 2022, published 2024)

How the values were obtained:
aerobically growing Mtb = conditions: aerobic growth
[1] = system: Mtb in hypoxia-induced growth arrest; assay: Bactericidal activity of HAB9 in hypoxic growth conditions (variation of the Wayne model)
Mtb = conditions: in vitro; cited from earlier work

| SMILES | bactericidal activity against aerobically growing Mtb (aerobically growing Mtb) | bactericidal activity in hypoxia-induced growth arrest ([1]; hypoxic, non-replicating Mtb) | anti-mycobacterial activity in limiting oxygen compared to aerobically grown cells ([1]; limiting oxygen versus aerobic) | activity against Mtb under nutrient starvation or progressive oxygen depletion (Mtb) |
| --- | --- | --- | --- | --- |
| COc1ccc(-c2cc(=O)c3c(O)cc(OC)cc3o2)cc1 [Compound 1, 5-hydroxy-7-methoxy-2-(4-methoxyphenyl)chromen-4-one] | substantially reduced viable cultures of Mtb | substantially reduced viable cultures of Mtb | enhanced | – |
| NNC(=O)c1ccncc1 [isoniazid] | – | – | – | little or no activity |
